Laboratory results: ChEMBL document CHEMBL4665783, “N-terminal modified cyclopeptidic mimetics of Apollo as inhibitors of TRF2” (Bioorg Med Chem Lett, 2020)

Legend:
[1] = molecular target: T1, Telomeric repeat-binding factor 2 (Homo sapiens, UniProt Q15554); experiment: Binding affinity to TRFH domain of TRF2 (residues 42 to 245) (unknown origin) by FP based assay
T1 sequence (Q15554 whole entry): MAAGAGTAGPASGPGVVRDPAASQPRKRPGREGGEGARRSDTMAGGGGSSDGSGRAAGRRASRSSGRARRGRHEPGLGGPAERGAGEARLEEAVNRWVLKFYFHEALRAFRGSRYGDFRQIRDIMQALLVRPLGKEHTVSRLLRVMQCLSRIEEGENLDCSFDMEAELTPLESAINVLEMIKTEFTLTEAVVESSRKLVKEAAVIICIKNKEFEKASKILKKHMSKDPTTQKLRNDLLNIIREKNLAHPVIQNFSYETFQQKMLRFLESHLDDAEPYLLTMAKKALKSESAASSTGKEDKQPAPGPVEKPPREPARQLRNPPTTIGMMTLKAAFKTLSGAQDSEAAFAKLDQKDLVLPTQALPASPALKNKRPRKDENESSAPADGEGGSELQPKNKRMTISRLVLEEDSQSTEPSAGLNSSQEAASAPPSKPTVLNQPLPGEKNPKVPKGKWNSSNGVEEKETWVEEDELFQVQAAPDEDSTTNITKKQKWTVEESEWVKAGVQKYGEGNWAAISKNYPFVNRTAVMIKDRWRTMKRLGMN

[2] = molecular target: T1, Telomeric repeat-binding factor 2; experiment: Binding affinity to biotinylated TRF2 (unknown origin) by biolayer interferometry assay

Row | Molecule | Ki [1] [µM] | Kd [2] [µM]
1 | CC(C)C[C@@H]1NC(=O)[C@@H](NC(=O)c2cc(OCCN)cc(OCc3ccccc3)c2)COCCCCOC[C@@H](C(=O)N(C)C)NC(=O)[C@@H]2CCCN2C(=O)[C@H](C)NC1=O | 35 | –
2 | CC(C)C[C@@H]1NC(=O)[C@@H](NC(=O)c2cc(OCc3ccccc3)cc(OCC3CCCC3)c2)COCCCCOC[C@@H](C(=O)N(C)C)NC(=O)[C@@H]2CCCN2C(=O)[C@H](C)NC1=O | 6.9 | –
3 | CC(C)C[C@@H]1NC(=O)[C@@H](NC(=O)c2cc(OCc3ccccc3)cc(OC(C)C)c2)COCCCCOC[C@@H](C(=O)N(C)C)NC(=O)[C@@H]2CCCN2C(=O)[C@H](C)NC1=O | 11 | –
4 | CC(C)C[C@@H]1NC(=O)[C@@H](NC(=O)c2cc(OCc3ccccc3)cc(OC3CCCC3)c2)COCCCCOC[C@@H](C(=O)N(C)C)NC(=O)[C@@H]2CCCN2C(=O)[C@H](C)NC1=O | 5.1 | –

Now those with a lower Ki [1], led by results:

Row | Ki [1] [µM] | Kd [2] [µM] | Molecule
5 | 4.2 | 2.5 | CC(C)C[C@@H]1NC(=O)[C@@H](NC(=O)c2cc(OCc3ccccc3)cc(OCC3CC3)c2)COCCCCOC[C@@H](C(=O)N(C)C)NC(=O)[C@@H]2CCCN2C(=O)[C@H](C)NC1=O
6 | 0.33 | – | Ac-LALKYLLTPV-NH2
7 | 4.9 | – | CC(C)C[C@@H]1NC(=O)[C@@H](NC(=O)c2cc(OCc3ccccc3)cc(OC3CCC3)c2)COCCCCOC[C@@H](C(=O)N(C)C)NC(=O)[C@@H]2CCCN2C(=O)[C@H](C)NC1=O
8 | 4.3 | – | CC(C)C[C@@H]1NC(=O)[C@@H](NC(=O)c2cc(OCc3ccccc3)cc(OCC3CCC3)c2)COCCCCOC[C@@H](C(=O)N(C)C)NC(=O)[C@@H]2CCCN2C(=O)[C@H](C)NC1=O
